According to patent publication US9693997B2, “Antiviral compounds” (priority 2013, dated 2017):
Structures can show the parent of a compound that is named as a salt.

Key:
[1] = tested on: pseudotyped VSV G particles (VSVpp) in Huh7-high CD81 cells; test: microbe, parasite or virus in culture; type: cell-based, vesicular stomatitis virus; conditions: Vesicular stomatitis virus, 72 h, read-out: VSVpp (EC50, μM)
[2] = tested on: Pseudotyped HCV GT1b particles (HCVpp), entry into Huh7-high CD81 cells; test: microbe, parasite or virus in culture; type: cell-based, HCV GT1b Con1 strain; conditions: Hepatitis C virus, GT1B, 72 h, read-out: HCVpp GT-1b (EC50, μM)

Row | SMILES | EC50 [1] [µM] | EC50 [2] [µM]
1 | Nc1nc(Nc2cc(Cl)c(-c3cccc(S(N)(=O)=O)c3)c(C(F)(F)F)c2)n[nH]1 [Compound 197, 4′-(5-amino-1H-1,2,4-triazol-3-ylamino)-2′-chloro-6′-(trifluoromethyl)biphenyl-3-sulfonamide 2,2,2-trifluoroacetate] | > 10 | 0.249
2 | Nc1nc(Nc2cc(Cl)c(-c3ccc(NC(=O)CN4CCOCC4)cc3)c(C(F)(F)F)c2)n[nH]1 [Compound 241, [4′-(5-amino-1H-[1,2,4]triazol-3-ylamino)-2′-chloro-6′-trifluoromethyl-biphenyl-4-yl]-2-morpholin-4-yl-acetamide] | > 10 | 0.123
3 | COc1ccc(-c2c(Cl)cc(Nc3n[nH]c(N)n3)cc2C(F)(F)F)cc1S(=O)(=O)N1CCNCC1 [Compound 182, N3-(2-chloro-4′-methoxy-3′-(piperazin-1-ylsulfonyl)-6-(trifluoromethyl)biphenyl-4-yl)-1H-1,2,4-triazole-3,5-diamine hydrochloride] | > 10 | 0.044
4 | COC(=O)c1ccc(-c2c(Cl)cc(Nc3n[nH]c(N)n3)cc2Cl)cc1 [Compound 110, 4′-(5-Amino-1H-[1,2,4]triazol-3-ylamino)-2′,6′-dichloro-biphenyl-4-carboxylic acid methyl ester] | 25 | 0.1
5 | COc1ccc(-c2c(F)cc(Nc3nc(N)n[nH]3)cc2C(F)(F)F)cc1 [Compound 86, N^5-[6-Fluoro-4′-methoxy-2-trifluoromethylbiphenyl-4-yl]-1H-[1,2,4]-triazole-3,5-diamine] | 8.87 | 0.525
6 | CN(CCNS(=O)(=O)c1ccc(-c2c(Cl)cc(Nc3n[nH]c(N)n3)cc2C(F)(F)F)cc1)C(=O)OC(C)(C)C [Compound 209, tert-butyl 2-(4′-(5-amino-1H-1,2,4-triazol-3-ylamino)-2′-chloro-6′-(trifluoromethyl)biphenyl-4-ylsulfonamido)ethyl(methyl)carbamate] | 7.09 | 0.005
7 | Nc1n[nH]c(Nc2cc(F)c(-c3ccc(C(F)(F)F)cc3)c(C(F)(F)F)c2)n1 [Compound 246, N^5-[6-Fluoro-2,4′-bis-trifluoromethylbiphenyl-4-yl]-1H-[1,2,4]-triazole-3,5-diamine] | 37.9 | 3.54
8 | CC(C)(C)OC(=O)N1CCC(Oc2cccc(-c3c(Cl)cc(Nc4n[nH]c(N)n4)cc3C(F)(F)F)c2)CC1 [Compound 21, 4-[4′-(5-Amino-1H-[1,2,4]triazol-3-ylamino)-2′-chloro-6′-trifluoromethyl-biphenyl-3-yloxy]-piperidine-1-carboxylic acid tert-butyl ester] | > 10 | 0.039
9 | CC(C)CS(=O)(=O)c1ccc(-c2c(Cl)cc(Nc3n[nH]c(N)n3)cc2C(F)(F)F)cc1 [Compound 65, N*3*-[6-Chloro-4′-(2-methyl-propane-1-sulfonyl)-2-trifluoromethyl-biphenyl-4-yl]-1H-[1,2,4]triazole-3,5-diamine] | > 10 | 0.026
10 | Nc1nc(Nc2cc(Cl)c(-c3ccc(OCCCN4CCOCC4)cc3)c(Cl)c2)n[nH]1 [Compound 283, N*3*-[2,6-Dichloro-4′-(3-morpholin-4-yl-propoxy)-biphenyl-4-yl]-1H-[1,2,4]triazole-3,5-diamine] | > 10 | 0.523
11 | CC1(NS(=O)(=O)c2ccc(-c3c(Cl)cc(Nc4n[nH]c(N)n4)cc3C(F)(F)F)cc2)CN(C(=O)OC(C)(C)C)C1 [Compound 205, tert-butyl 3-(4′-(5-amino-1H-1,2,4-triazol-3-ylamino)-2′-chloro-6′-(trifluoromethyl)biphenyl-4-ylsulfonamido)-3-methylazetidine-1-carboxylate] | 9.26 | 0.011
12 | Nc1nc(Nc2cc(Cl)c(-c3ccc(NC(=O)C4CCC(F)(F)CC4)cc3)c(C(F)(F)F)c2)n[nH]1 [Compound 235, 4,4-Difluorocyclohexanecarboxylic acid [4′-(5-amino-1H-[1,2,4]triazol-3-ylamino)-2′-chloro-6′-trifluoromethyl-biphenyl-4-yl]-amide] | > 10 | 0.012
13 | Nc1nc(Nc2cc(Cl)c(-c3ccc(S(=O)(=O)CC4CCCNC4)cc3)c(C(F)(F)F)c2)n[nH]1 (stereo not drawn) [Compound 25, N*3*-[2-Chloro-4′-(piperidin-3-ylmethanesulfonyl)-6-trifluoromethyl-biphenyl-4-yl]-1H-[1,2,4]triazole-3,5-diamine; hydrochloride] | > 10 | 0.059
14 | CC(C)(C)OC(=O)c1ccc(-c2c(Cl)cc(Nc3n[nH]c(N)n3)cc2C(F)(F)F)cc1 [Compound 200, tert-butyl 4′-(5-amino-1H-1,2,4-triazol-3-ylamino)-2′-chloro-6′-(trifluoromethyl)biphenyl-4-carboxylate] | > 10 | 0.574
15 | COc1ccc(-c2c(Cl)cc(Nc3n[nH]c(N)n3)cc2C(F)(F)F)cc1S(=O)(=O)N[C@H]1CC[C@H](O)CC1 [Compound 190, 4′-(5-amino-1H-1,2,4-triazol-3-ylamino)-2′-chloro-N-(trans-4-hydroxycyclohexyl)-4-methoxy-6′-(trifluoromethyl)biphenyl-3-sulfonamide] | 56.1 | 0.046
16 | Nc1nc(Nc2cc(Cl)c(-c3ccc(OC[C@@H]4CCCN4)cc3)c(C(F)(F)F)c2)n[nH]1 [Compound 270, N*3*-[6-Chloro-4′-((S)-1-pyrrolidin-2-ylmethoxy)-2-trifluoromethyl-biphenyl-4-yl]-1H-[1,2,4]triazole-3,5-diamine] | 33.3 | 0.117
17 | Nc1nc(Nc2cc(Cl)c(-c3ccc(OCC4CNC4)cc3)c(C(F)(F)F)c2)n[nH]1 [Compound 37, N*3*-[4′-(Azetidin-3-ylmethoxy)-2-chloro-6-trifluoromethyl-biphenyl-4-yl]-1H-[1,2,4]triazole-3,5-diamine; hydrochloride] | > 10 | 0.107
18 | CS(=O)(=O)c1ccc(-c2ccc(Nc3n[nH]c(N)n3)cc2S(F)(F)(F)(F)F)cc1 [Compound 288, N*3*-(4′-Methanesulfonyl-2-pentafluorosulfur-biphenyl-4-yl)-1H-[1,2,4]triazole-3,5-diamine] | 8.93 | 1.23
19 | Nc1nc(Nc2cc(Cl)c(-c3ccc(OC4CCCNC4)cc3)c(C(F)(F)F)c2)n[nH]1 (stereo not drawn) [Compound 130, N*3*-[6-Chloro-4′-(piperidin-3-yloxy)-2-trifluoromethyl-biphenyl-4-yl]-1H-[1,2,4]triazole-3,5-diamine hydrochloride] | 8.67 | 0.055
20 | CC(C)(C)CCN1CCC(S(=O)(=O)c2ccc(-c3c(Cl)cc(Nc4n[nH]c(N)n4)cc3C(F)(F)F)cc2)CC1 [Compound 5, N*3*-{2-Chloro-4′-[1-(3,3-dimethyl-butyl)-piperidine-4-sulfonyl]-6-trifluoromethyl-biphenyl-4-yl}-1H-[1,2,4]triazole-3,5-diamine; hydrochloride] | > 10 | 0.005
21 | CC(C)(C)NCc1ccc(-c2c(Cl)cc(Nc3n[nH]c(N)n3)cc2C(F)(F)F)cc1 [Compound 58, N*3*-[4′-(tert-Butylamino-methyl)-2-chloro-6-trifluoromethyl-biphenyl-4-yl]-1H-[1,2,4]triazole-3,5-diamine; hydrochloride] | 4.56 | 0.086
22 | CC(C)(C)OC(=O)N1CCN(S(=O)(=O)c2ccc(-c3c(Cl)cc(Nc4n[nH]c(N)n4)cc3C(F)(F)F)cc2)C2(CC2)C1 [Compound 208, tert-butyl 4-(4′-(5-amino-1H-1,2,4-triazol-3-ylamino)-2′-chloro-6′-(trifluoromethyl)biphenyl-4-ylsulfonyl)-4,7-diazaspiro[2.5]octane-7-carboxylate] | > 10 | 0.049
23 | Nc1n[nH]c(Nc2cc(F)c(-c3cccc(F)c3)c(C(F)(F)F)c2)n1 [Compound 244] | 33.4 | 0.689
24 | CNCCOc1ccc(-c2c(Cl)cc(Nc3n[nH]c(N)n3)cc2C(F)(F)F)cc1 [Compound 126, N*3*-[6-Chloro-4′-(2-methylamino-ethoxy)-2-trifluoromethyl-biphenyl-4-yl]-1H-[1,2,4]triazole-3,5-diamine hydrochloride] | > 10 | 0.088
25 | Nc1nc(Nc2cc(Cl)c(-c3ccc(OCc4ccccn4)cc3)c(Cl)c2)n[nH]1 [Compound 284, N*3*-[2,6-Dichloro-4′-(pyridin-2-ylmethoxy)-biphenyl-4-yl]-1H-[1,2,4]triazole-3,5-diamine] | > 10 | 0.576
26 | COCC(=O)Nc1ccc(-c2c(Cl)cc(Nc3n[nH]c(N)n3)cc2Cl)cc1 [Compound 73, N-(4′-(5-amino-1H-[1,2,4]triazol-3-ylamino)-2′,6′-dichlorobiphenyl-4-yl)-2-methoxyacetamide] | 24.1 | 0.113
27 | Nc1nc(Nc2ccc(-c3ccccc3Cl)c(Cl)c2)n[nH]1 [Compound 155, N*3*-(2,2′-Dichloro-biphenyl-4-yl)-1H-[1,2,4]triazole-3,5-diamine] | 7.46 | 1.66
28 | CN1C(C)(C)CC(Sc2ccc(-c3c(Cl)cc(Nc4n[nH]c(N)n4)cc3C(F)(F)F)cc2)CC1(C)C [Compound 127, N*3*-[6-Chloro-4′-(1,2,2,6,6-pentamethyl-piperidin-4-ylsulfanyl)-2-trifluoromethyl-biphenyl-4-yl]-1H-[1,2,4]triazole-3,5-diamine] | 9.69 | 0.144
29 | CC1(O)CCN(S(=O)(=O)c2ccc(-c3c(Cl)cc(Nc4n[nH]c(N)n4)cc3C(F)(F)F)cc2)C1 (stereo not drawn) [Compound 68, 1-[4′-(5-Amino-1H-[1,2,4]triazol-3-ylamino)-6′-chloro-2′-trifluoromethyl-biphenyl-4-sulfonyl]-3-methyl-pyrrolidin-3-ol] | 8.73 | 0.05
30 | Nc1nc(Nc2cc(Cl)c(-c3ccc(O[C@H]4CCNC4)cc3)c(Cl)c2)n[nH]1 [Compound 271, N*3*-[2,6-Dichloro-4′-((S)-pyrrolidin-3-yloxy)-biphenyl-4-yl]-1H-[1,2,4]triazole-3,5-diamine] | 4.39 | 0.12
